Experiments:
Format in all cases: biochemical
SIK2 = biological target: T1, SIK2 (Homo sapiens, UniProt Q9H0K1); assay: SIK2 kinase assay, IMAP fluorescence polarization; conditions: 50 or 100 μM ATP, average
T1 construct: purchased Life Technologies
Method: (§1) SIK2, SIK1, SIK3, Abl, Src and EPHA2 Kinase Assays
(§2) SIK2, SIK1, SIK3, Abl, Src and EPHA2 assays were performed using an IMAP fluorescence polarization assay format (Molecular Devices Inc.). 0.6-13 nM of each kinase (Life Technologies) was incubated for 60 min at room temperature with 100 nM of either FAM-Abltide, FAM-Srctide or FAM-HDAC protein derived peptide (synthesized by Alta Biosciences, Birmingham UK). Assays were carried out in the presence of 50 or 100 μM ATP in either 20 mM Tris buffer (pH 7.2) containing 4 mM MgCl2, 0.2% BSA and 2 mM DTT (SIK2, SIK1, SIK3, Abl, Src); or 20 mM Tris buffer (pH 8.5) containing 20 mM MgCl2, 0.5% BSA, 0.2% Triton and 5 mM DTT (EPHA2). Typically, dose response analyses were performed over concentration ranges from 0.00005-1 μM. Reactions were stopped by adding 2 assay volumes of 0.25% (v/v) IMAP binding reagent in either an 85:15 ratio (SIK2, SIK1, SIK3, Abl, EPHA2) or 30:70 ratio (Src) of IMAP binding buffers A and B (Molecular Devices). After incubation to allow the detection reagents to bind to the phosphorylated peptide, fluorescence polarization was measured on a Tecan Infinite plate reader at excitation (470 nm) and emission (530 nm) wavelengths. Inhibition was calculated using no inhibitor and no enzyme controls as 0 and 100% inhibition, respectively.
(§3) Table 3 provides details of the inhibitory constant (nM) of compounds of the invention at SIK1, SIK2 and SIK3 and other kinases.

SIK1 = biological target: T2, SIK1 (Homo sapiens, UniProt P57059); assay: SIK1 kinase assay, IMAP fluorescence polarization; conditions: 50 or 100 μM ATP, average
T2 construct: purchased Life Technologies
Method: as §1, §2, §3

SIK3 = biological target: T3, SIK3 (Homo sapiens, UniProt Q9Y2K2); assay: SIK3 kinase assay, IMAP fluorescence polarization; conditions: 50 or 100 μM ATP, average
T3 construct: purchased Life Technologies
Method: as §1, §2, §3

Abl = biological target: T4, Abl (Homo sapiens, UniProt P00519); assay: Abl kinase assay, IMAP fluorescence polarization; conditions: 50 or 100 μM ATP, average
T4 construct: purchased Life Technologies
Method: as §1, §2, §3

Src = biological target: T5, Src (Homo sapiens, UniProt P12931); assay: Src kinase assay, IMAP fluorescence polarization; conditions: 50 or 100 μM ATP, average
T5 construct: purchased Life Technologies
Method: as §1, §2, §3

EPHA2 = biological target: T6, EPHA2 (Homo sapiens, UniProt P29317); assay: EPHA2 kinase assay, IMAP fluorescence polarization; conditions: 50 or 100 μM ATP, Tris pH 8.5, average
T6 construct: purchased Life Technologies
Method: as §1, §2, §3

T5 sequence (P12931 whole entry): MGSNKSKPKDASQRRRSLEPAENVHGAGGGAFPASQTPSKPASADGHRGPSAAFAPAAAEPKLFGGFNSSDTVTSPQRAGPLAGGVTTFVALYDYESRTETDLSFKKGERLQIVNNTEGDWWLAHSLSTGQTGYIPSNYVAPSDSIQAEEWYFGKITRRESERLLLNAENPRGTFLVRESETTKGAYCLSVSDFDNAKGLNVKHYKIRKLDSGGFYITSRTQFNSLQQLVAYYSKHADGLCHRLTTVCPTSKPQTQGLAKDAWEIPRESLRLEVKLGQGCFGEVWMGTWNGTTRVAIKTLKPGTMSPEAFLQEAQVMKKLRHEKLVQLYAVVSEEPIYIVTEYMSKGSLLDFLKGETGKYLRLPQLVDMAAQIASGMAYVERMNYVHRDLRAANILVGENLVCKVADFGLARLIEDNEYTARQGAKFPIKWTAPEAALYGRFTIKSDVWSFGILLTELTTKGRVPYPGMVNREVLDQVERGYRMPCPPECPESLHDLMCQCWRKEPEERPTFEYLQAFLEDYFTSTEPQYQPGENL
T3 sequence (Q9Y2K2 whole entry): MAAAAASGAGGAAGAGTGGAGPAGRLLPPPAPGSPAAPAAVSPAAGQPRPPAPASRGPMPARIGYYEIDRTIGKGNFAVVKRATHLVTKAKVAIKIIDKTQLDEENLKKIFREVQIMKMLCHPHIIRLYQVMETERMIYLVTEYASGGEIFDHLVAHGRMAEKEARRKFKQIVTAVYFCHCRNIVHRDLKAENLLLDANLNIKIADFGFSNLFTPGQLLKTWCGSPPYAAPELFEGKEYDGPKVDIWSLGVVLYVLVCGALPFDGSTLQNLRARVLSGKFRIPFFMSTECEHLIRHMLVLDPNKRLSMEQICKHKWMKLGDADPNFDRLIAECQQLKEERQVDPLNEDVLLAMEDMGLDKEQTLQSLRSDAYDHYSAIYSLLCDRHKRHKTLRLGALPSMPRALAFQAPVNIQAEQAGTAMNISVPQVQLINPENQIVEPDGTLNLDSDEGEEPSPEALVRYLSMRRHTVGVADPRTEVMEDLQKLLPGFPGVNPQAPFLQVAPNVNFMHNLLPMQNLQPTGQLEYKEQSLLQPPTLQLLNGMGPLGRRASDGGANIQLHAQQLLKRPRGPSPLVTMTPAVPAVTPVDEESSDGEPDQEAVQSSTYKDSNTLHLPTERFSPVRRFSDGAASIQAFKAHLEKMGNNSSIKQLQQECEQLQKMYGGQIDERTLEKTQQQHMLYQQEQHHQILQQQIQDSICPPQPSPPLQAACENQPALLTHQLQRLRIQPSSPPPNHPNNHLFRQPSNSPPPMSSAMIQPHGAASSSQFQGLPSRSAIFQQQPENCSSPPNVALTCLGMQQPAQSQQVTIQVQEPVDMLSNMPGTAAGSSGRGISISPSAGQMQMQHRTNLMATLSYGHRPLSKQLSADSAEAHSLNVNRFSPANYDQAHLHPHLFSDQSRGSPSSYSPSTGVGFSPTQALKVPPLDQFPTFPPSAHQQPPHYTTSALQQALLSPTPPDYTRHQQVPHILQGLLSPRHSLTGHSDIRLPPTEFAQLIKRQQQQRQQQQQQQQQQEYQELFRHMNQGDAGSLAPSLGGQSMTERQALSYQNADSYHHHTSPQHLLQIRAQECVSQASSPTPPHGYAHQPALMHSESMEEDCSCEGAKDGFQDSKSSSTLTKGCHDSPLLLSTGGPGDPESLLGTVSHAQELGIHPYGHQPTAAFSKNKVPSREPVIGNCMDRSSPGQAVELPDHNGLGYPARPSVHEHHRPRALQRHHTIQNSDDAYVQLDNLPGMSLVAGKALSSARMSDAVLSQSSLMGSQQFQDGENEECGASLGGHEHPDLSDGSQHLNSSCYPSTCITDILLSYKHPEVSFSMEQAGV
T4 sequence (P00519 whole entry): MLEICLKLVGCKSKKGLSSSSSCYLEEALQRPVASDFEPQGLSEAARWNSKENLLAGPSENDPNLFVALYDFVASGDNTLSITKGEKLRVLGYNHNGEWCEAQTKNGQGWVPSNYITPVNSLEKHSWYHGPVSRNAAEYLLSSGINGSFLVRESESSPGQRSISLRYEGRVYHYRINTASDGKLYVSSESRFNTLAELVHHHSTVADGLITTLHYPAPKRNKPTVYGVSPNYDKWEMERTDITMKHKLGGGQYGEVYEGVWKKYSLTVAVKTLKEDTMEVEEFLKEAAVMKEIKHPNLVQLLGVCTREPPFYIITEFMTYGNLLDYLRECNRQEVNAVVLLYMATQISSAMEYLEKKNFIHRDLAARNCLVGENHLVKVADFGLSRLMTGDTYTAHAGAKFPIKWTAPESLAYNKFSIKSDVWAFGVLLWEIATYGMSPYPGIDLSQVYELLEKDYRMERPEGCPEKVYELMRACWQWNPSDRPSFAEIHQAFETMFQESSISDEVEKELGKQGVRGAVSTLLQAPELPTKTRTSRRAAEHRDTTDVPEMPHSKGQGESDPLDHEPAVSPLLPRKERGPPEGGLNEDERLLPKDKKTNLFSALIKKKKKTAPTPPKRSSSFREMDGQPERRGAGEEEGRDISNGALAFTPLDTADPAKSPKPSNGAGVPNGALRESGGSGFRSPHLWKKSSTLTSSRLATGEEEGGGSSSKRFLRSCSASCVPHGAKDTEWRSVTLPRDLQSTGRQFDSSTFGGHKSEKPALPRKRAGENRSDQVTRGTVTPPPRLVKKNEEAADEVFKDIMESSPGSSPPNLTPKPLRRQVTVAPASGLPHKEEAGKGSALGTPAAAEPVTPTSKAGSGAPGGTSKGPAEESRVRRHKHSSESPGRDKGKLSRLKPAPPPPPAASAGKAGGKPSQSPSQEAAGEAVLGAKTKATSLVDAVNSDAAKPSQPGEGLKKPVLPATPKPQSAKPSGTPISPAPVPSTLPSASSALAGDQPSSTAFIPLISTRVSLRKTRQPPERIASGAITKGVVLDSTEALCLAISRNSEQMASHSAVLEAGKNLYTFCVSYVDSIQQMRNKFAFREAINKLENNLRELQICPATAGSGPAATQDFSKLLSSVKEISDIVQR
T2 sequence (P57059 whole entry): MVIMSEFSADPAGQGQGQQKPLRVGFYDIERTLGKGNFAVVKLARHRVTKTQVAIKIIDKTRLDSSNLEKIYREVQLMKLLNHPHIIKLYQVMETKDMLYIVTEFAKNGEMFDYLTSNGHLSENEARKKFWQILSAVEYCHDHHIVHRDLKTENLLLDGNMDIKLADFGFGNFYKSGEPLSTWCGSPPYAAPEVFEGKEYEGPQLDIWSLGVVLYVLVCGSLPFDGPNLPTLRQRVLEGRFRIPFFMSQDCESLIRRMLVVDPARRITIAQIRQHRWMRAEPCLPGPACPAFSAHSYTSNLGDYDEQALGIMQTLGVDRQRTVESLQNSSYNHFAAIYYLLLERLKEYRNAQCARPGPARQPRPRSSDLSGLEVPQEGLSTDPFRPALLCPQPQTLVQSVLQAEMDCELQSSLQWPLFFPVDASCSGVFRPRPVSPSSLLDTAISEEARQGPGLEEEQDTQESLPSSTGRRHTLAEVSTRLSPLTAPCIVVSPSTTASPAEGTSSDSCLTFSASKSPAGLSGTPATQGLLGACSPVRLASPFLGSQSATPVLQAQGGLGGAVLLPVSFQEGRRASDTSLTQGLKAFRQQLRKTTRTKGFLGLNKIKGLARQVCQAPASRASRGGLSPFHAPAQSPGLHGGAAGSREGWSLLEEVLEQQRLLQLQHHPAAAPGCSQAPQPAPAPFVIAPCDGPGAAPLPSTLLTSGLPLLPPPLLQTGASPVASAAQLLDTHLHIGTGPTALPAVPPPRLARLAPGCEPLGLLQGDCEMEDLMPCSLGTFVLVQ
T1 sequence (Q9H0K1 whole entry): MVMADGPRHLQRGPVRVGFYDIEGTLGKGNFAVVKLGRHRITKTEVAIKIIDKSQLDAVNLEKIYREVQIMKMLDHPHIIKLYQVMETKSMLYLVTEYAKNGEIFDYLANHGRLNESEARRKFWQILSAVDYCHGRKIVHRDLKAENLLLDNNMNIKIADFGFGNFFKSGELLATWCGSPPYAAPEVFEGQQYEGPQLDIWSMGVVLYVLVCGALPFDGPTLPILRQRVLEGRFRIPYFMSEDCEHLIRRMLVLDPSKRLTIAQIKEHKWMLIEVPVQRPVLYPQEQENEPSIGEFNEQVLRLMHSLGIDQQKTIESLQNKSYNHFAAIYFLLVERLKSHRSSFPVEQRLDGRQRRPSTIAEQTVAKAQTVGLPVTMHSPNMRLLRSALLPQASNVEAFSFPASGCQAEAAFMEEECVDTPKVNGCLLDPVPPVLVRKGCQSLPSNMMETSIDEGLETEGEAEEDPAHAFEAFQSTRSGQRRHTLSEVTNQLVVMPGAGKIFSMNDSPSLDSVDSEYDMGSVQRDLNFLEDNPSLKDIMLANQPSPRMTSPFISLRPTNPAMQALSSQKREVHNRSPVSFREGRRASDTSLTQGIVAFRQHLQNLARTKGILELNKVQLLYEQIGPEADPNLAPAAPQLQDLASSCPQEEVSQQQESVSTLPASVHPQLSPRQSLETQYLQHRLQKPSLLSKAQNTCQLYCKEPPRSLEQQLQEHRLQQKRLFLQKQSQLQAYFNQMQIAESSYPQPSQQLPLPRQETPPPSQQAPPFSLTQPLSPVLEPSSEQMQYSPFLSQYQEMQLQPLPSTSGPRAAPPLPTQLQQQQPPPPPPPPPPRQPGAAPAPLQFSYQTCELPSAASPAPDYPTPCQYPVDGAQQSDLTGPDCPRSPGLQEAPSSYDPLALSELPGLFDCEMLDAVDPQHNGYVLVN

Row | Compound | Ki (SIK2) | Ki (SIK1) | Ki (SIK3) | Ki (Abl) | Ki (Src) | Ki (EPHA2)
1 | Cc1cccc(F)c1-c1cc(NC[C@@H]2CCNC2)c2cc(N)ncc2c1 [Example 6, 7-(2-fluoro-6-methyl-phenyl)-N5-[[(3R)-pyrrolidin-3-yl]methyl]isoquinoline-3,5-diamine] | 0.0517 nM | 0.31 nM | 0.57 nM | 0.298 nM | 145 nM | 49.5 nM
2 | Cc1cccc(F)c1-c1cc(N[C@H]2CCNC2)c2cc(N)ncc2c1 [Example 7, 7-(2-fluoro-6-methyl-phenyl)-N5-[(3S)-pyrrolidin-3-yl]isoquinoline-3,5-diamine] | 0.0496 nM | 0.414 nM | 0.325 nM | 5.55 nM | 193 nM | 199 nM
3 | Cc1cccc(F)c1-c1cc(NCC2CCNCC2)c2cc(N)ncc2c1 [Example 8, 7-(2-fluoro-6-methyl-phenyl)-N5-(4-piperidylmethyl)isoquinoline-3,5-diamine] | 0.108 nM | 0.546 nM | 1.02 nM | 1.4 nM | 16.5 nM | 5.15 nM
4 | Cc1cccc(F)c1-c1cc(NC[C@H]2CCNC2)c2cc(N)ncc2c1 [Example 9, 7-(2-fluoro-6-methyl-phenyl)-N5-[[(3S)-pyrrolidin-3-yl]methyl]isoquinoline-3,5-diamine] | 0.0411 nM | 0.316 nM | 0.269 nM | 0.687 nM | 217 nM | 166 nM
5 | Cc1cccc(F)c1-c1cc(NC[C@@H]2CCCNC2)c2cc(N)ncc2c1 [Example 10, 7-(2-fluoro-6-methyl-phenyl)-N5-[[(3R)-3-piperidyl]methyl]isoquinoline-3,5-diamine] | 0.101 nM | 0.535 nM | 0.966 nM | 4.83 nM | 32.1 nM | 47.6 nM
6 | Cc1cccc(F)c1-c1cc(NCC2CNC2)c2cc(N)ncc2c1 [Example 11, N5-(azetidin-3-ylmethyl)-7-(2-fluoro-6-methyl-phenyl)isoquinoline-3,5-diamine] | 0.0672 nM | 0.417 nM | 0.195 nM | 0.921 nM | 23.5 nM | 95.1 nM
7 | Cc1cccc(F)c1-c1cc(NC[C@H]2CCCN2)c2cc(N)ncc2c1 [Example 12, 7-(2-fluoro-6-methyl-phenyl)-N5-[[(2R)-pyrrolidin-2-yl]methyl]isoquinoline-3,5-diamine] | 0.329 nM | 1.07 nM | 3.1 nM | 22.9 nM | 167 nM | 216 nM
8 | Cc1cccc(F)c1-c1cc(NC[C@@H]2CCCN2)c2cc(N)ncc2c1 [Example 13, 7-(2-fluoro-6-methyl-phenyl)-N5-[[(2S)-pyrrolidin-2-yl]methyl]isoquinoline-3,5-diamine] | 0.191 nM | 0.501 nM | 1.01 nM | 3.29 nM | 24.3 nM | 144 nM
9 | Cc1cccc(F)c1-c1cc(NC[C@@H]2CCCCN2)c2cc(N)ncc2c1 [Example 14, 7-(2-fluoro-6-methyl-phenyl)-N5-[[(2S)-2-piperidyl]methyl]isoquinoline-3,5-diamine] | 0.0969 nM | 0.601 nM | 2.43 nM | 8.01 nM | 67.8 nM | 59.5 nM
10 | CNC1CCN(c2cc(-c3c(C)cccc3F)cc3cnc(N)cc23)CC1 [Example 15, 7-(2-fluoro-6-methyl-phenyl)-5-[4-(methylamino)-1-piperidyl]isoquinolin-3-amine] | 0.155 nM | 1.01 nM | 1.94 nM | 19.4 nM | 396 nM | 156 nM
11 | Cc1cccc(F)c1-c1cc(N[C@@H]2CCCCNC2)c2cc(N)ncc2c1 [Example 17, N5-[(3R)-azepan-3-yl]-7-(2-fluoro-6-methyl-phenyl)isoquinoline-3,5-diamine] | 0.096 nM | 0.463 nM | 1.65 nM | 2.55 nM | > 1000 nM | > 1000 nM
12 | Cc1cccc(F)c1-c1cc(N[C@H]2CCCCNC2)c2cc(N)ncc2c1 [Example 23, N5-[(3S)-azepan-3-yl]-7-(2-fluoro-6-methyl-phenyl)isoquinoline-3,5-diamine] | 0.0488 nM | 0.287 nM | 0.171 nM | 3.75 nM | 15.9 nM | 24.6 nM
13 | Cc1cccc(F)c1-c1cc(N[C@@H]2CCCNC2)c2cc(N)ncc2c1 [Example 25, 7-(2-fluoro-6-methyl-phenyl)-N5-[(3R)-3-piperidyl]isoquinoline-3,5-diamine] | 0.132 nM | 0.546 nM | 1.28 nM | 4.96 nM | > 1000 nM | > 1000 nM
14 | Cc1cccc(F)c1-c1cc(N[C@H]2CCCNC2)c2cc(N)ncc2c1 [Example 26, 7-(2-fluoro-6-methyl-phenyl)-N5-[(3S)-3-piperidyl]isoquinoline-3,5-diamine] | 0.0395 nM | 0.302 nM | 0.0838 nM | 0.341 nM | 163 nM | 24.6 nM
15 | CNc1cc2c(NC3CCNCC3)cc(-c3c(C)cccc3F)cc2cn1 [Example 27, 7-(2-Fluoro-6-methyl-phenyl)-N3-methyl-N5-(4-piperidyl)isoquinoline-3,5-diamine] | 0.0748 nM | 0.429 nM | 0.349 nM | 22.9 nM | 218 nM | 216 nM
16 | Cc1cccc(F)c1-c1cc(NC2CCNCC2)c2cc(NC(C)C)ncc2c1 [Example 28, 7-(2-fluoro-6-methyl-phenyl)-N3-isopropyl-N5-(4-piperidyl)isoquinoline-3,5-diamine] | 0.155 nM | 1.39 nM | 0.504 nM | 14.8 nM | 413 nM | > 1000 nM
17 | Cc1cccc(Cl)c1-c1cc(NC2CCNCC2)c2cc(N)ncc2c1 [Example 30, 7-(2-Chloro-6-methyl-phenyl)-N5-(4-piperidyl)isoquinoline-3,5-diamine] | 0.335 nM | 0.474 nM | 2.92 nM | 36.1 nM | 96.2 nM | 65.5 nM

Second part, the compound after the results:

Row | Ki (SIK2) | Ki (SIK1) | Ki (SIK3) | Ki (Abl) | Ki (Src) | Ki (EPHA2) | Compound
18 | 0.224 nM | 2 nM | 4.7 nM | 41.6 nM | 924 nM | 278 nM | CN[C@H]1CCN(c2cc(-c3c(C)cccc3F)cc3cnc(N)cc23)C1 [Example 16, 7-(2-fluoro-6-methyl-phenyl)-5-[(3S)-3-(methylamino)pyrrolidin-1-yl]isoquinolin-3-amine]
19 | 0.196 nM | 0.656 nM | 7.09 nM | 1.88 nM | 53.4 nM | 100 nM | CN[C@H]1CCCN(c2cc(-c3c(C)cccc3F)cc3cnc(N)cc23)C1 [Example 18, 7-(2-fluoro-6-methyl-phenyl)-5-[(3S)-3-(methylamino)-1-piperidyl]isoquinolin-3-amine]
20 | 0.113 nM | 0.476 nM | 4.45 nM | 24.6 nM | 306 nM | > 1000 nM | CN[C@@H]1CCCN(c2cc(-c3c(C)cccc3F)cc3cnc(N)cc23)C1 [Example 19, 7-(2-fluoro-6-methyl-phenyl)-5-[(3R)-3-(methylamino)-1-piperidyl]isoquinolin-3-amine]
21 | 0.274 nM | 0.594 nM | 9.36 nM | 10.5 nM | 50.4 nM | 41.5 nM | CNC[C@H]1CCCN(c2cc(-c3c(C)cccc3F)cc3cnc(N)cc23)C1 [Example 21, 7-(2-fluoro-6-methyl-phenyl)-5-[(3R)-3-(methylamino-methyl)-1-piperidyl]isoquinolin-3-amine]
22 | 0.563 nM | 1.67 nM | 13.6 nM | 46.6 nM | 304 nM | 227 nM | CNC[C@@H]1CCCN(c2cc(-c3c(C)cccc3F)cc3cnc(N)cc23)C1 [Example 22, 7-(2-fluoro-6-methyl-phenyl)-5-[(3S)-3-(methylamino-methyl)-1-piperidyl]isoquinolin-3-amine]
23 | 0.402 nM | 2.34 nM | 7.5 nM | 34 nM | 327 nM | 148 nM | CN[C@@H]1CCN(c2cc(-c3c(C)cccc3F)cc3cnc(N)cc23)C1 [Example 24, 7-(2-fluoro-6-methyl-phenyl)-5-[(3R)-3-(methylamino)pyrrolidin-1-yl]isoquinolin-3-amine]
24 | 0.056 nM | 0.381 nM | 0.447 nM | 19.3 nM | 97.4 nM | 165 nM | CNC1CN(c2cc(-c3c(C)cccc3F)cc3cnc(N)cc23)C1 [Example 29, 7-(2-Fluoro-6-methyl-phenyl)-5-[3-(methylamino)azetidin-1-yl]isoquinolin-3-amine]
